In patent publication US20060088598A1, “Intravenous composition, process for producing the same and preparation thereof” (LTT Bio-Pharama Co., Ltd., priority 2002, published 2006):

Key:
Format in all cases: physicochemical
[1] = Encapsulation ratio of agents in PLGA microparticles (HPLC of supernatant and deposit); conditions: FIG. 1; microparticles of Example 1
Experimental: 100 mg of PLGA (Wako) or PLA (Wako), 10 mg of egg yolk lecithin, and 0.5 mg of an agent were dissolved in 1 ml of dichloromethane. While cooling in an ice bath, the obtained solution was slowly added dropwise, through a 27G needle, to 25 ml of distilled water, which was being stirred with Polytron PT-2100 (Kinematica) or an ultrasonic generator (TOMY). After the stirring was continued for 10 minutes, the mixture was further stirred with a stirrer at room temperature for 2 hours. Thereafter, dichloromethane was removed. The obtained microparticles were concentrated by ultra filtration (Amicon, Centriprep YM-10) and were then purified by gel filtration (Pharmacia, PD-10). The thus obtained particles were centrifuged at 13,000 g for 10 minutes, and the agent contained in the supernatant and deposit was assayed by HPLC. HPLC analysis was carried out in a water/acetonitrile system for measuring the absorption at 210 nm or 240 nm using a C4 reverse phase column (Waters, Symmetry 300). With regard to agents, PGE1, and ASO06 produced by esterifying carboxylic acid and a hydroxyl group thereof, were used as prostanoids.

[2] = Releasing behavior after freeze-drying in 10% sucrose; conditions: freeze-dried in 10% sucrose, resuspended in 3% BSA-containing PBS; FIGS. 6 and 7
Experimental: (§1) 30 mg of PLGA (Wako) or PLA (Wako), 3 mg of egg yolk lecithin (Wako), and 1 mg of AS006 or BDP were dissolved in 1 ml of dichloromethane, and microparticles were then produced by the same method as described in Example 1. The obtained microparticles were suspended in distilled water, PBS, or 3% BSA-containing PBS. The suspension was allowed for a certain period of time, and was then centrifuged at 13,000 g for 10 minutes. Thereafter, AS006 or BDP contained in the deposit was assayed by HPLC.
A 10% stabilizer was added to the PLGA microparticle suspension produced in Example 2, and the suspension was then frozen with acetone/dry ice, followed by performing a freeze-drying treatment. The dried PLGA microparticles were dispersed in water again. Thereafter, the turbidity of the suspension was measured with a spectrophotometer, and the microparticle size thereof was measured with a dynamic light scattering photometer. In addition, the AS006-containing PLGA microparticles produced in Example 4 and the BDP-containing PLGA microparticles produced in Example 2 were freeze-dried in 10% sucrose, and the remaining amount of the agent and the releasing behavior were measured by the method described in Example 2.

[3] = Remaining ratio of agent in PLGA microparticles after 1% SDS or 80% FBS, 37° C., 5 minutes; conditions: with addition of SDS, FIG. 4
Experimental: Each of the agents produced in Example 1 was suspended in 80% FBS (fetal bovine serum) or in a 1% SDS aqueous solution, and the suspension was incubated at 37° C. for 5 minutes. Thereafter, the resultant product was centrifuged at 13,000 g for 10 minutes, and the amount of the agent contained in the deposit was assayed by HPLC.

[4] = Releasing behavior of agent from agent-encapsulated PLGA microparticles in suspension; conditions: 3% BSA-containing PBS at 37° C.; FIG. 3
Experimental: as §1

Row | Compound | encapsulation ratio in PLGA microparticle [1] | releasing behavior with vs without freeze-drying [2] | agent remaining in PLGA [3] | sustained-release behavior [4]
1 | C[C@]12CCC(=O)C=C1CC[C@@H]1[C@@H]2[C@@H](O)C[C@@]2(C)[C@H]1CC[C@]2(O)C(=O)CO [hydrocortisone, Hydrocortisone] | almost neither hydrocortisone nor betamethazone could be encapsulated | – | – | –
2 | CCCCC[C@H](O)/C=C/[C@H]1[C@H](O)CC(=O)[C@@H]1CCCCCCC(=O)O [PGE1, prostaglandin E1] | almost no PGE1 could be encapsulated | – | – | –
3 | CCC(=O)OCC(=O)[C@@]1(OC(=O)CC)[C@@H](C)C[C@H]2[C@@H]3CCC4=CC(=O)C=C[C@]4(C)[C@@]3(F)[C@@H](O)C[C@@]21C [BDP, betamethazone dipropionate] | significantly increased | same releasing behavior regardless whether or not a freeze-drying treatment had been carried out | ≥ 80% | same sustained-release behavior as that of ASO06
4 | CCCC(=O)O[C@]1(C(=O)COC(=O)CC)CC[C@H]2[C@@H]3CCC4=CC(=O)CC[C@]4(C)[C@H]3[C@@H](O)C[C@@]21C [HBP, hydrocortisone butyrate propionate] | significantly increased | – | – | –
